Laboratory results published in the NIST ThermoML archive (doi:10.1021/je060222y).
“And” between values parts separate entries of the source, which are not always exact repeats. Equal entries are not always repeated. ± gives the expanded uncertainty stated by the source.

Assays:
[1] = Molar enthalpy of transition or fusion; conditions: Crystal
[2] = molar heat capacity at constant pressure; conditions: 101.33 kPa, Liquid, Small sample (50 mg) DSC
[3] = for mass density: 101.33 kPa, Liquid; for Triple point temperature: Crystal

With `CCCC[n+]1ccn(C)c1.O=S(=O)([N-]S(=O)(=O)C(F)(F)F)C(F)(F)F` the “Molar enthalpy of transition or fusion” value [1] was 5.36 kcal/mol and 5.86 kcal/mol, the “molar heat capacity at constant pressure” value ([2]; 283.15 K) was 558.99 ± 8.7 J/K/mol and 559.63 ± 8.7 J/K/mol and the “molar heat capacity at constant pressure” value ([2]; 288.15 K) was 561.29 ± 8.7 J/K/mol and 562.05 ± 8.7 J/K/mol. For the same compound, the “molar heat capacity at constant pressure” value ([2]; 293.15 K) was 564.02 ± 8.7 J/K/mol and 564.58 ± 8.8 J/K/mol, the “molar heat capacity at constant pressure” value ([2]; 298.15 K) was 566.47 ± 8.8 J/K/mol and 567.33 ± 8.8 J/K/mol and the “molar heat capacity at constant pressure” value ([2]; 303.15 K) was 569.01 ± 8.8 J/K/mol and 569.74 ± 8.8 J/K/mol. For the same compound, the “molar heat capacity at constant pressure” value ([2]; 308.15 K) was 572.11 ± 8.9 J/K/mol and 572.82 ± 8.9 J/K/mol, the “molar heat capacity at constant pressure” value ([2]; 313.15 K) was 575.03 ± 8.9 J/K/mol and 575.56 ± 8.9 J/K/mol and the “molar heat capacity at constant pressure” value ([2]; 318.15 K) was 577.84 ± 8.9 J/K/mol and 578.49 ± 9 J/K/mol. The “molar heat capacity at constant pressure” value ([2]; 323.15 K) was 581.06 ± 9 J/K/mol and 581.68 ± 9 J/K/mol, the “molar heat capacity at constant pressure” value ([2]; 328.15 K) was 584.36 ± 9.1 J/K/mol and 584.82 ± 9.1 J/K/mol and the mass density ([3]; 278.15 K) was 1454.98 ± 1.7 kg/m3 and 1453.33 ± 1.7 kg/m3. The mass density ([3]; 283.15 K) was 1450.16 ± 1.7 kg/m3 and 1448.52 ± 1.7 kg/m3, the mass density ([3]; 288.15 K) was 1445.33 ± 1.7 kg/m3 and 1443.69 ± 1.7 kg/m3 and the mass density ([3]; 293.15 K) was 1440.51 ± 1.7 kg/m3 and 1438.89 ± 1.6 kg/m3. The mass density ([3]; 298.15 K) was 1435.73 ± 1.7 kg/m3 and 1434.1 ± 1.6 kg/m3, the mass density ([3]; 303.15 K) was 1430.94 ± 1.7 kg/m3 and 1429.31 ± 1.6 kg/m3 and the mass density ([3]; 308.15 K) was 1426.17 ± 1.6 kg/m3 and 1424.54 ± 1.6 kg/m3. The mass density ([3]; 313.15 K) was 1421.4 ± 1.6 kg/m3 and 1419.78 ± 1.6 kg/m3, the mass density ([3]; 318.15 K) was 1416.66 ± 1.6 kg/m3 and 1415.04 ± 1.6 kg/m3 and the mass density ([3]; 323.15 K) was 1411.94 ± 1.6 kg/m3 and 1410.31 ± 1.6 kg/m3. For the same compound, the mass density ([3]; 328.15 K) was 1407.23 ± 1.6 kg/m3 and 1405.6 ± 1.6 kg/m3, the mass density ([3]; 333.15 K) was 1402.55 ± 1.6 kg/m3 and 1400.92 ± 1.5 kg/m3 and the Triple point temperature [3] was 268.51 ± 0.77 K and 267.61 ± 0.77 K.

With `CCCCn1cc[n+](C)c1.F[P-](F)(F)(F)(F)F` [1-butyl-3-methylimidazolium hexafluorophosphate] the “Molar enthalpy of transition or fusion” value ([1]; DSC) was 4.76 ± 0.139 kcal/mol, the “molar heat capacity at constant pressure” value ([2]; 283.15 K) was 400.9 ± 6.2 J/K/mol and the “molar heat capacity at constant pressure” value ([2]; 288.15 K) was 402.32 ± 6.2 J/K/mol. For the same compound, the “molar heat capacity at constant pressure” value ([2]; 293.15 K) was 404.97 ± 6.3 J/K/mol, the “molar heat capacity at constant pressure” value ([2]; 298.15 K) was 407.66 ± 6.3 J/K/mol and the “molar heat capacity at constant pressure” value ([2]; 303.15 K) was 410.33 ± 6.4 J/K/mol. The “molar heat capacity at constant pressure” value ([2]; 308.15 K) was 413.14 ± 6.4 J/K/mol, the “molar heat capacity at constant pressure” value ([2]; 313.15 K) was 415.98 ± 6.4 J/K/mol and the “molar heat capacity at constant pressure” value ([2]; 318.15 K) was 418.91 ± 6.5 J/K/mol. The “molar heat capacity at constant pressure” value ([2]; 323.15 K) was 421.88 ± 6.5 J/K/mol, the mass density ([3]; 283.15 K) was 1379.14 ± 1.5 kg/m3 and the mass density ([3]; 288.15 K) was 1374.83 ± 1.4 kg/m3. It also gave a mass density ([3]; 293.15 K) of 1370.43 ± 1.4 kg/m3, a mass density ([3]; 298.15 K) of 1366.12 ± 1.4 kg/m3 and a mass density ([3]; 303.15 K) of 1361.76 ± 1.4 kg/m3. The mass density ([3]; 308.15 K) was 1357.52 ± 1.4 kg/m3, the mass density ([3]; 313.15 K) was 1353.35 ± 1.4 kg/m3 and the mass density ([3]; 318.15 K) was 1349.16 ± 1.4 kg/m3. For the same compound, the mass density ([3]; 323.15 K) was 1345.02 ± 1.4 kg/m3 and the Triple point temperature [3] was 280.03 ± 0.77 K.
